{"source": "paper PMC6750840", "about": "(Journal of Medicinal Chemistry, 2019)", "key": {"[1]": {"system": "histamine-induced flare response", "details": "after oral administration; cited from earlier work"}, "[2]": {"details": "after administration; cited from earlier work"}, "[3]": {"system": "H1R", "details": "cited from earlier work"}, "[4]": {"target": "human H1R (Homo sapiens, UniProt P35367)", "sequence (P35367 whole entry)": "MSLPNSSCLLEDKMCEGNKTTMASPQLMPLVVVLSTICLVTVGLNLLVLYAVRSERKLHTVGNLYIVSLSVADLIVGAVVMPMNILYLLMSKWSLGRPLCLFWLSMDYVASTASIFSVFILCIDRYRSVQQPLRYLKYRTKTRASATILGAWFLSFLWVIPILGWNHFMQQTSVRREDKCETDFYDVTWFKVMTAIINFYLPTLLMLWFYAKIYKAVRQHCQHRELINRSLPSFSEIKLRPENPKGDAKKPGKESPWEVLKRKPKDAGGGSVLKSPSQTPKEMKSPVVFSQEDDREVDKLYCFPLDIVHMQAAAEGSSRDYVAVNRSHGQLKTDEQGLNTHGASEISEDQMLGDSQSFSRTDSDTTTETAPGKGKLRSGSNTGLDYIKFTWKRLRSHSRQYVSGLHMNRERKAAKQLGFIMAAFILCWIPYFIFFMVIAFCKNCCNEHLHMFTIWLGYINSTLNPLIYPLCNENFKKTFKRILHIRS", "experiment": "Binding rate constants of [3H]levocetirizine", "details": "four concentrations (1–35 nM), 360 min, 37 °C"}}}
{"compound": "Cc1cncc(CN2CCC(=C3c4ccc(Cl)cc4CCc4cccnc43)CC2)c1", "note": "[Compound 1, rupatadine]", "values": [{"measurement": "duration of antagonism of the histamine-induced flare response", "setting": "[1]", "value": "up to 72 h"}, {"measurement": "time up to which plasma levels could be detected", "setting": "[2]", "value": "up to 12 h"}]}
{"compound": "O=C(O)COCCN1CCN([C@H](c2ccccc2)c2ccc(Cl)cc2)CC1", "note": "[levocetirizine]", "values": [{"measurement": "fold longer residence time at the H1R than mepyramine", "setting": "[3]", "value": 100, "unit": "fold"}]}
{"compound": "(R)-5-(4-((4-Chlorophenyl)([4-^3H]phenyl)methyl)piperazin-1-yl)pentanoic Acid [[^3H]levocetirizine]", "values": [{"measurement": "koff", "setting": "[4]", "value": "0.022 ± 0.003", "unit": "min^–1"}, {"measurement": "kon", "setting": "[4]", "value": "3.7 ± 0.4 10^6 min^–1 M^–1"}]}
